Results reported in US20090105305A1, “Therapeutic Agents - 550” (AstraZeneca AB, priority 2006, published 2009).

Target: T1, human Fatty Acid Synthase (Homo sapiens, UniProt P49327)
T1 construct: made in house
Test: Human FAS enzyme assay (decrease in NADPH fluorescence)
Format: biochemical
Settings: for IC50: unit inferred; for IC50s in the range of about 0.001 μM to about 30 μM: compounds excluded from the claims by proviso
How it was run: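 Readout: decrease in NADPH fluorescence (340 nm ex, 460 nm em) after 60 min at RT, background-subtracted against a read taken before substrate. Substrate mix contained 500 μM malonyl-CoA and 150 μM acetyl-CoA. It was added after 15 min enzyme (0.4 μg in-house human FAS)–compound–NADPH preincubation in Tris pH 7.5 buffer; % inhibition was fitted to IC50.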

[1] = % inhibition at a concentration of 100 micromolar

T1 sequence (P49327 whole entry): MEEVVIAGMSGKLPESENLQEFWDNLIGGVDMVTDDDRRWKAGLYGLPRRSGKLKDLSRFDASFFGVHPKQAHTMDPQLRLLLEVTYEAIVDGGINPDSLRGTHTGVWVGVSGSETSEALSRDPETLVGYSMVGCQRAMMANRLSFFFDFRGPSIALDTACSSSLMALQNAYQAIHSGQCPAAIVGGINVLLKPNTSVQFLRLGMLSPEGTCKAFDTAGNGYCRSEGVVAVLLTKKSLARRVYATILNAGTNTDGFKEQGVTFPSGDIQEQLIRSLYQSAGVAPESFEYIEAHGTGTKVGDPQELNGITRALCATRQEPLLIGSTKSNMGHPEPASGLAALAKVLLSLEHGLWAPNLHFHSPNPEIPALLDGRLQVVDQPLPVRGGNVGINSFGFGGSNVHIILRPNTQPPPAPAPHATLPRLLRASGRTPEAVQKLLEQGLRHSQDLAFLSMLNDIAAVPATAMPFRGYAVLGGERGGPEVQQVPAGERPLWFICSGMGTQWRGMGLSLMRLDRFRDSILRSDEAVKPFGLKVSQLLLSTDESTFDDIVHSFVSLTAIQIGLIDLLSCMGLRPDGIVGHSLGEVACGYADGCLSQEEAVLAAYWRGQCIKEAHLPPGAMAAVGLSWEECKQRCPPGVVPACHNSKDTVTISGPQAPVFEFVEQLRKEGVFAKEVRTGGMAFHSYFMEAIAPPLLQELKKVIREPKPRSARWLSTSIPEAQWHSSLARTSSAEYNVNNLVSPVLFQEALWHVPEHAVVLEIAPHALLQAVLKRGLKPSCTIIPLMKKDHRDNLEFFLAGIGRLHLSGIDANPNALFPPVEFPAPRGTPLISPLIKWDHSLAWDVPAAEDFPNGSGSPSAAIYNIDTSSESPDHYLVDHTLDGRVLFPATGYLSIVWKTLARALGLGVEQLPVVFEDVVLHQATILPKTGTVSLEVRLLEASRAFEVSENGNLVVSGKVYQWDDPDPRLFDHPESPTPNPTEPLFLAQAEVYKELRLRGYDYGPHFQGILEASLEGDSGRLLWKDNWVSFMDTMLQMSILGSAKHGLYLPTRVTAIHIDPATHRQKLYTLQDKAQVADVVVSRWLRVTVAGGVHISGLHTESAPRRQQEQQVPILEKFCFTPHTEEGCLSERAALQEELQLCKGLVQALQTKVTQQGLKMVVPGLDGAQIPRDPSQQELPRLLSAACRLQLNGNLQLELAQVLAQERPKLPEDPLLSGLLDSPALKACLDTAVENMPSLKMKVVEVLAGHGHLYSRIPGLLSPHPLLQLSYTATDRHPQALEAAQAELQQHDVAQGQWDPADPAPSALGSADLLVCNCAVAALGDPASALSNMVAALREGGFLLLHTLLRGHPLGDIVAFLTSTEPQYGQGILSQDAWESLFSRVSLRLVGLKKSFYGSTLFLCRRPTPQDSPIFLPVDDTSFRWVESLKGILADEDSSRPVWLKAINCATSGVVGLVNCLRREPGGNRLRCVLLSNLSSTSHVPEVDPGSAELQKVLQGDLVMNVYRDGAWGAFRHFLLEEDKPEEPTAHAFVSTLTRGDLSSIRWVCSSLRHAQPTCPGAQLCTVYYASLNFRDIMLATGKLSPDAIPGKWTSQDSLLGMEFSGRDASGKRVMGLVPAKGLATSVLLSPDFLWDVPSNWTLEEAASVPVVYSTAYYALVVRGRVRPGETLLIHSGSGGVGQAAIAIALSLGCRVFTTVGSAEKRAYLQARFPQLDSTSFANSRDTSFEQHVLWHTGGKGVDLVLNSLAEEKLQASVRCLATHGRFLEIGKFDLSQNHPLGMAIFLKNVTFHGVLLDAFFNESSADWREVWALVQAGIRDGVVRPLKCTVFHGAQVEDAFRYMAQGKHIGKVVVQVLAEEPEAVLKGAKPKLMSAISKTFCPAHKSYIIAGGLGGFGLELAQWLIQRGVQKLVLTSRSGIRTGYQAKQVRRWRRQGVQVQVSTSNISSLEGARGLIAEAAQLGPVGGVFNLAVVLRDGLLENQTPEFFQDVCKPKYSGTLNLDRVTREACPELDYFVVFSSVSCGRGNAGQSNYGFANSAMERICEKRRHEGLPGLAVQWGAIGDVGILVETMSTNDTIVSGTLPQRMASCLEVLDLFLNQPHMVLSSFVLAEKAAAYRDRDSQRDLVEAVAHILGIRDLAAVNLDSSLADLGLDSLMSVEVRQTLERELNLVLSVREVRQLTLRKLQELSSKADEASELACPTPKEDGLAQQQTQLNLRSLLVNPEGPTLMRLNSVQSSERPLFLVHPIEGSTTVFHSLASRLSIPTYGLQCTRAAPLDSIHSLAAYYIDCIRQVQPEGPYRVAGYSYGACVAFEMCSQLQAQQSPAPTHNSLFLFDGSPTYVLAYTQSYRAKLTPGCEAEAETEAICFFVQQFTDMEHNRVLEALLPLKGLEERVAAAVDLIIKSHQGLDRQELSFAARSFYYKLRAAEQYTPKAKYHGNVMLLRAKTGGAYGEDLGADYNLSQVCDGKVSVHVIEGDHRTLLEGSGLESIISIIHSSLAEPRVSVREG

Compound | IC50s in the range of about 0.001 μM to about 30 μM | other results
Cc1ccc(C(=O)N2CCC(c3ccc(CNS(=O)(=O)N(C)C)cc3)CC2)cc1NS(C)(=O)=O [Example 242, N-[5-[4-[4-[(dimethylsulfamoylamino)methyl]phenyl]piperidine-1-carbonyl]-2-methylphenyl]methanesulfonamide] | – | inhibition at 100 µM [1]: 95.7%
Cc1ccc(C(=O)N2CCC(c3ccc(CN4CCOCC4)cc3)CC2)cc1NS(C)(=O)=O [Example 243, N-[2-methyl-5-[4-[4-(morpholin-4-ylmethyl)phenyl]piperidine-1-carbonyl]phenyl]methanesulfonamide] | – | inhibition at 100 µM [1]: 69.9%
Cc1ccc(C(=O)N2CCC(c3ccc(CCC(=O)O)cc3)CC2)cc1NS(=O)(=O)C1CCCCC1 [Example 244, 3-[4-[1-[3-(cyclohexylsulfonylamino)-4-methylbenzoyl]piperidin-4-yl]phenyl]propanoic acid] | – | inhibition at 100 µM [1]: 92.3%
COC(=O)CS(=O)(=O)NCc1ccc(C2CCN(C(=O)c3ccc(C)c(NS(C)(=O)=O)c3)CC2)cc1 [Example 245, Methyl 2-[[4-[1-(3-methanesulfonamido-4-methylbenzoyl)piperidin-4-yl]phenyl]methylsulfamoyl]acetate] | – | inhibition at 100 µM [1]: 104%
Cc1ccc(C(=O)N2CCC(c3ccc(CCCC(=O)O)cc3)CC2)cc1NS(=O)(=O)C1CCCCC1 [Example 246, 4-[4-[[13-(cyclohexylsulfonylamino)-4-methylbenzoyl]piperidin-4-yl]phenyl]butanoic acid] | – | Inhib % [1]: 92.8%
COCCOCC#Cc1ccc(C2CCN(C(=O)c3ccc(C)c(NS(C)(=O)=O)c3)CC2)cc1 [Example 247, N-[5-[4-[4-[3-(2-methoxyethoxy)prop-1-ynyl]phenyl]piperidine-1-carbonyl]-2-methylphenyl]methanesulfonamide] | – | IC50: 1780 nM
CNC(=O)CCc1ccc(C2CCN(C(=O)c3ccc(C)c(NS(C)(=O)=O)c3)CC2)cc1 [Example 248, 3-[4-[1-(3-methanesulfonamido-4-methylbenzoyl)piperidin-4-yl]phenyl]-N-methylpropanamide] | – | IC50: 405 nM
Cc1ccc(C(=O)N2CCC(c3ccc(CCC(=O)N(C)C)cc3)CC2)cc1NS(C)(=O)=O [Example 249, 3-[4-[1-(3-methanesulfonamido-4-methylbenzoyl)piperidin-4-yl]phenyl]-N,N-dimethylpropanamide] | – | IC50: 515 nM
Cc1ccc(C(=O)N2CCC(c3ccc(C#CCCCO)cc3)CC2)cc1NS(C)(=O)=O [Example 250, N-[5-[4-[4-(5-hydroxypent-1-ynyl)phenyl]piperidine-1-carbonyl]-2-methylphenyl]methanesulfonamide] | – | IC50: 1440 nM
Cc1ccc(C(=O)N2CCC(c3ccc(C#CCCO)cc3)CC2)cc1NS(C)(=O)=O [Example 251, N-[5-[4-[4-(4-hydroxybut-1-ynyl)phenyl]piperidine-1-carbonyl]-2-methylphenyl]methanesulfonamide] | – | IC50: 663 nM
Cc1ccc(C(=O)N2CCC(c3ccc(C#CC(C)(C)O)cc3)CC2)cc1NS(C)(=O)=O [Example 252, N-[5-[4-[4-(3-hydroxy-3-methylbut-1-ynyl)phenyl]piperidine-1-carbonyl]-2-methylphenyl]methanesulfonamide] | – | IC50: 3330 nM
Cc1ccc(C(=O)N2CCC(c3ccc(CNS(=O)(=O)CC(=O)O)cc3)CC2)cc1NS(C)(=O)=O [Example 253, 2-[[4-[1-(3-methanesulfonamido-4-methylbenzoyl)piperidin-4-yl]phenyl]methylsulfamoyl]acetic acid] | – | IC50: 12700 nM
COC(=O)c1ccc(C2CCN(C(=O)c3ccc(C)c(NS(C)(=O)=O)c3)CC2)cc1 [Methyl 4-[1-(3-methanesulfonamido-4-methylbenzoyl)piperidin-4-yl]benzoate] | do not have IC50s in the range of about 0.001 μM to about 30 μM | –
CS(=O)(=O)Nc1cc(C(=O)N2CCC(c3ccc(C#N)cc3)CC2)ccc1Cl [N-[2-chloro-5-[4-(4-cyanophenyl)piperidine-1-carbonyl]phenyl]methanesulfonamide] | do not have IC50s in the range of about 0.001 μM to about 30 μM | –
Cc1ccc(C(=O)N2CCC(c3ccccc3)CC2)cc1NS(C)(=O)=O [N-[2-methyl-5-(4-phenylpiperidine-1-carbonyl)phenyl]methanesulfonamide] | do not have IC50s in the range of about 0.001 μM to about 30 μM | –
Cc1ccc(C(=O)N2CCC(c3cccc(-c4ccccc4)c3)CC2)cc1NS(C)(=O)=O [N-[2-methyl-5-[4-(3-phenylphenyl)piperidine-1-carbonyl]phenyl]methanesulfonamide] | do not have IC50s in the range of about 0.001 μM to about 30 μM | –
Cc1ccc(C(=O)N2CCC(c3ccc(-c4ncccn4)cc3)CC2)cc1NS(C)(=O)=O [N-[2-methyl-5-[4-(4-pyrimidin-2-ylphenyl)piperidine-1-carbonyl]phenyl]methanesulfonamide] | do not have IC50s in the range of about 0.001 μM to about 30 μM | –

Compound | IC50s in the range of about 0.001 μM to about 30 μM | other results
Cc1ccc(C(=O)N2CCC(c3ccc(S(=O)(=O)N4CCCC4)cc3)CC2)cc1NS(C)(=O)=O [N-[2-methyl-5-[4-(4-pyrrolidin-1-ylsulfonylphenyl)piperidine-1-carbonyl]phenyl]methanesulfonamide] | do not have IC50s in the range of about 0.001 μM to about 30 μM | –
Cc1ccc(C(=O)N2CCC(c3cccc(-c4cncs4)c3)CC2)cc1NS(C)(=O)=O [N-[2-methyl-5-[4-[3-(1,3-thiazol-5-yl)phenyl]piperidine-1-carbonyl]phenyl]methanesulfonamide] | do not have IC50s in the range of about 0.001 μM to about 30 μM | –
Cc1ccc(C(=O)N2CCC(c3ccc(N4CCCC4=O)cc3)CC2)cc1NS(C)(=O)=O [N-[2-methyl-5-[4-[4-(2-oxopyrrolidin-1-yl)phenyl]piperidine-1-carbonyl]phenyl]methanesulfonamide] | do not have IC50s in the range of about 0.001 μM to about 30 μM | –
Cc1ccc(C(=O)N2CCC(c3ccc(C(=O)N4CCCN(C)CC4)cc3)CC2)cc1NS(C)(=O)=O [N-[2-methyl-5-[4-[4-(4-methyl1,4-diazepane-1-carbonyl)phenyl]piperidine-1-carbonyl]phenyl]methanesulfonamide] | do not have IC50s in the range of about 0.001 μM to about 30 μM | –
Cc1ccc(C(=O)N2CCC(c3ccc(S(=O)(=O)N4CCN(C)CC4)cc3)CC2)cc1NS(C)(=O)=O [N-[2-methyl-5-[4-[4-(4-methylpiperazin-1-yl)sulfonylphenyl]piperidine-1-carbonyl]phenyl]methanesulfonamide] | do not have IC50s in the range of about 0.001 μM to about 30 μM | –
CS(=O)(=O)Nc1ccc(F)c(C(=O)N2CCC(c3ccc(C#N)cc3)CC2)c1 [N-[3-[4-(4-cyanophenyl)piperidine-1-carbonyl]-4-fluorophenyl]methanesulfonamide] | do not have IC50s in the range of about 0.001 μM to about 30 μM | –
Cc1ccc(C(=O)N2CCC(O)(c3ccccc3)CC2)cc1NS(C)(=O)=O [N-[5-(4-hydroxy-4-phenylpiperidine-1-carbonyl)-2-methylphenyl]methanesulfonamide] | do not have IC50s in the range of about 0.001 μM to about 30 μM | –
Cc1ccc(C(=O)N2CCC(c3ccccc3C#N)CC2)cc1NS(C)(=O)=O [N-[5-[4-(2-cyanophenyl)piperidine-1-carbonyl]-2-methylphenyl]methanesulfonamide] | do not have IC50s in the range of about 0.001 μM to about 30 μM | –
Cc1ccc(C(=O)N2CCC(O)(c3ccccc3F)CC2)cc1NS(C)(=O)=O [N-[5-[4-(2-fluorophenyl)-4-hydroxypiperidine-1-carbonyl]-2-methylphenyl]methanesulfonamide] | do not have IC50s in the range of about 0.001 μM to about 30 μM | –
COc1ccccc1C1CCN(C(=O)c2ccc(C)c(NS(C)(=O)=O)c2)CC1 [N-[5-[4-(2-methoxyphenyl)piperidine-1-carbonyl]-2-methylphenyl]methanesulfonamide] | do not have IC50s in the range of about 0.001 μM to about 30 μM | –
Cc1ccc(C(=O)N2CCC(c3ccc(C#N)c(C#N)c3)CC2)cc1NS(C)(=O)=O [N-[5-[4-(3,4-dicyanophenyl)piperidine-1-carbonyl]-2-methylphenyl]methanesulfonamide] | do not have IC50s in the range of about 0.001 μM to about 30 μM | –
Cc1ccc(C(=O)N2CCC(c3cccc(Br)c3)CC2)cc1NS(C)(=O)=O [N-[5-[4-(3-bromophenyl)piperidine-1-carbonyl]-2-methylphenyl]methanesulfonamide] | do not have IC50s in the range of about 0.001 μM to about 30 μM | –
Cc1ccc(C(=O)N2CCC(c3cccc(Cl)c3)CC2)cc1NS(C)(=O)=O [N-[5-[4-(3-chlorophenyl)piperidine-1-carbonyl]-2-methylphenyl]methanesulfonamide] | do not have IC50s in the range of about 0.001 μM to about 30 μM | –
Cc1ccc(C(=O)N2CCC(c3cccc(C#N)c3)CC2)cc1NS(C)(=O)=O [N-[5-[4-(3-cyanophenyl)piperidine-1-carbonyl]-2-methylphenyl]methanesulfonamide] | do not have IC50s in the range of about 0.001 μM to about 30 μM | –
C#Cc1cccc(C2CCN(C(=O)c3ccc(C)c(NS(C)(=O)=O)c3)CC2)c1 [N-[5-[4-(3-ethynylphenyl)piperidine-1-carbonyl]-2-methylphenyl]methanesulfonamide] | do not have IC50s in the range of about 0.001 μM to about 30 μM | –
Cc1ccc(C(=O)N2CCC(c3cccc(F)c3)CC2)cc1NS(C)(=O)=O [N-[5-[4-(3-fluorophenyl)piperidine-1-carbonyl]-2-methylphenyl]methanesulfonamide] | do not have IC50s in the range of about 0.001 μM to about 30 μM | –
